“And” between values parts separate entries of the source, which are not always exact repeats. Equal entries are not always repeated.
Each substance was assayed on TNF-α (assay: TNF-α secretion by LPS-stimulated THP-1 differentiated macrophages (Biolegend ELISA)). Conditions: THP-1 cells; 100, 10 or 1 ng/ml synthetic peptide 24 h, then 10 ng/ml LPS 5 h; vs untreated control.
Format: cell-based, human
Protocol: TNF-α is secreted by macrophages in response to stimulation by endotoxins such as lipopolysaccharides (LPS). TNF-α is thought to be involved in systemic inflammation and dysregulation of TNF-α production is thought to be involved in many diseases. The Biolegend assay is a sandwich ELISA kit that is designed for the accurate quantitation of human TNF-α from cell culture supernatant, serum or plasma.
THP-1 monocytes were seeded in a 96 well plate at 10,000 cells per well in RPMI containing 10% fetal calf serum (FCS), 1% Pen/strep, 1% L-glutamine, 100 nM PMA and allowed to differentiated for 72 h prior to experimentation.
Following differentiation the cells were incubated with 100 ng/ml, 10 ng/ml or 1 ng/ml synthetic peptide for 24 h respectively.
Following treatment the cells were stimulated with 10 ng/ml LPS for 5 h and the quantity of TNF-α in the supernatant determined using the Biolegend assay ELISA kit.
Results were calculated as a percentage of the untreated control. An increase in optical density reading indicates greater quantity of TNF-α release into cell culture supernatant.
All experiments were prepared in duplicate on three plates (6 wells/conditions). Significance was calculated using Students t-test (*p<0.05 compared to control, **p<0.01 compared to control, *** p<0.001 compared to control).

Row | Substance | TNF-α DECREASE [%]
1 | 344 (ARLSPGDVVIIPAGHPVAIT) [compound 344] | 20
2 | 346 (ARLSPGDVVIIPAGHPVA) [compound 346] | 18
3 | 92 (QVQVVNNNGKTVF) [compound 92] | 13
4 | 350 (ARLSPGDVVIIPAGHPVAITAS) [compound 350] | 80
5 | 320 (KRHGEWRPSYEKEEDEE) [compound 320] | 13
6 | 339 (ASSNLNLLGF) [compound 339] | 26
7 | 91 (TVFNGELR) [compound 91] | 80
8 | 93 (YIIQGRGITGPTF) [compound 93] | 14
9 | 76 (VTNLNSQNFPILNLVQMSAVK) [compound 76] | 9
10 | 105 (LAGNKRNPQAYR) [compound 105] | 9
11 | 352 (ARLSPGDVVIIPAGHPVAITA) [compound 352] | 23
12 | 75 (IYVTDLNNGANQLDPRQRD) [compound 75] | 11
13 | 345 (RGDTIKLPAGTTSYLVNQDDE) [compound 345] | 23
14 | 349 (LSPGDVVIIPAGHPVAITASSNLNLLGFGINAENNER) [compound 349] | 6
15 | 351 (LSPGDVVIIPAGHPVAITASSNL) [compound 351] | 18
16 | 144 (AGILEADR) [compound 144] | 16
17 | 341 (RGDTIKLPAGTTSYLVNQDDEE) [compound 341] | 21
18 | 85 (SIFRALPTDVLANAYRISREE) [compound 85] | 80
19 | 353 (HGPVEMPYTLLYPSSK) [compound 353] | 20

Same assay, conditions: THP-1 differentiated macrophages treated 24 hrs. prior to LPS stimulation

Row | Substance | TNF-α secretion reduced vs. untreated cells [%]
20 | QSFLLSGNQ [E_1_788] | 80

Each substance was assayed on Human Dermal Fibroblasts (HDF) (assay: BrdU Cell Proliferation Assay). Conditions: 5, 0.5 or 0.05 μg/ml synthetic peptide 24 h.
Format: cell-based
Protocol: BrDu is incorporated into newly synthesised DNA strands of actively proliferating cells. Following partial denaturation of double stranded DNA, Brdu is detected immunochemically allowing the assessment of the population of cells which are synthesizing DNA. Human Dermal Fibroblasts (HDF—Sigma 10605a) were seeded in a 96 well plate at 10,000 cells per well in DMEM containing 10% fetal calf serum (FCS), 1% Pen/strep, 1% L-glutamine and allowed to adhere for 24 h. Following the initial 24 h incubation the cells were incubated with 5 μg/ml, 0.5 μg/ml or 0.05 μg/ml synthetic peptide for 24 h respectively. After 18 h incubation with synthetic peptides 20 μl BrDu reagent was added to each well. At 24 h incubation the cell were fixed and the amount of […] was measured using the BrdU Cell Proliferation Assay, all steps were carried out according to the manufacturer's instructions. Results were calculated as a percentage of the untreated control. An increase in optical density reading indicates greatER incorporation of BrDu and increase cell proliferation.

Row | Substance | INCREASE IN PROLIFERATION
21 | 84 (ISREEAQR) [compound 84] | 20%
22 | 501 (DVLANAYR) [compound 501] | 43%
23 | 495 (SGFSTELLSEALGVSSQVAR) [compound 495] | 68%
24 | 181 (DLAIPVNRPGQLQS) [compound 181] | 33%
25 | 467 (NGVLRPGQL) [compound 467] | 90%
26 | 500 (DFLLAGNK) [compound 500] | 6%
27 | 359 (GTSSVINNLPLDVVAATFNLQRNE) [compound 359] | 15%
28 | 478 (EVEERSQNIF) [compound 478] | 76%
29 | 226 (KEDDEEEEQGEEEINK) [compound 226] | 30%
30 | 247 (LVDLVIPVNGPGKFEAFDLAK) [compound 247] | 28%
31 | 504 (FGAFTPLQYKSY) [compound 504] | 119%
32 | 252 (VIPVNGPGKF) [compound 252] | 111%
33 | 222 (DDEEEEQGEEEINK) [compound 222] | 110%
34 | 270 (HGEWRPSYEKQEDEEEK) [compound 270] | 47%
35 | 472 (LVPRYSNTPGM) [compound 472] | 77%
36 | 337 (NKNQYLRGFSKNILE) [compound 337] | 8%
37 | 74 (SIFRALPND) [compound 74] | 29%
38 | 452 (YYGEQQQQPGMTR) [compound 452] | 76%
39 | 98 (RGLSLLQPYASLQ) [compound 98] | 49%
40 | 454 (YYGEGSSEEGYYGEQQQQPGMTR) [compound 454] | 38%
41 | 403 (HPVAVRASSNLNLLGFGINAE) [compound 403] | 51%
42 | 455 (QQQQPGMTRV) [compound 455] | 47%
43 | 257 (LPQHIDADL) [compound 257] | 118%

Row | Substance | INCREASE IN PROLIFERATION
44 | 272 (PSYEKEEDEEEGQR) [compound 272] | 97%
45 | 410 (TLFLPQYTDADFILVVLSGK) [compound 410] | 73%
46 | 463 (QYAAQLPSMCRVEPQQCSIFAAGQY) [compound 463] | 100%
47 | 146 (VFIDHPSFLEK) [compound 146] | 80%
48 | 482 (ASLQEQEQGQVQSR) [compound 482] | 113%
49 | 253 (SKKSLPSE) [compound 253] | 112%
50 | 460 (GEGSSEEGYYGEQQQQPGMTR) [compound 460] | 38%
51 | 93 (YIIQGRGITGPTF) [compound 93] | 26%
52 | 248 (DNVISQIENPVKE) [compound 248] | 86%
53 | 462 (QQQQPGMTRVR) [compound 462] | 15%
54 | 114 (SIEQHSGQNIFSGFNNELLSEALGVNALVAK) [compound 114] | 119%
55 | 470 (PRYSNTPGMV) [compound 470] | 119%
56 | 256 (IPVNGPGKF) [compound 256] | 117%
57 | 457 (SYEESMPMPLEQGWSSSSSEY) [compound 457] | 114%
58 | 499 (ALPTDVLANAYR) [compound 499] | 113%
59 | 464 (TVFNGVLRPGQL) [compound 464] | 18%
60 | 477 (FYNEGDAPVVA) [compound 477] | 81%
61 | 285 (VVIIPAGHPVA) [compound 285] | 81%
62 | 503 (QGDVIALPAGVAHW) [compound 503] | 125%
63 | 249 (VVIIPAGHPVAITASSNLNLLGFG) [compound 249] | 30%
64 | 453 (SYEESMPMPLEQGWSSSSSE) [compound 453] | 25%
65 | 105 (LAGNKRNPQAYR) [compound 105] | 40%
66 | 365 (AGTSSVINNLPLDV) [compound 365] | 58%

Row | Substance | INCREASE IN PROLIFERATION
67 | 471 (YSNTPGMVY) [compound 471] | 38%
68 | 473 (FYNEGDAPVV) [compound 473] | 41%
69 | 112 (GEELGAFTPR) [compound 112] | 15%
70 | 97 (GEIVRVER) [compound 97] | 26%
71 | 461 (YGEGSSEEGYYGEQQQQPGMTR) [compound 461] | 85%
72 | 502 (GAFTPLQYK) [compound 502] | 68%
73 | 124 (FYNEGDAPVVAL) [compound 124] | 15%
74 | 497 (GLLLPHYTNGASLVY) [compound 497] | 58%
75 | 73 (SIFRALPNDVLANAYRISREE) [compound 73] | 16%
76 | 468 (ALVAKRLQGQNDQRGEI) [compound 468] | 82%
77 | 480 (ASLQEQEQGQVQ) [compound 480] | 102%
78 | 83 (SYQDVYNVAESS) [compound 83] | 32%
79 | 479 (VEERSQNIFSGF) [compound 479] | 106%
80 | 474 (FYNEGDAPVVAL) [compound 474] | 121%
81 | 330 (NKNQYLRGFS) [compound 330] | 18%
82 | 341 (RGDTIKLPAGTTSYLVNQDDEE) [compound 341] | 83%
83 | 158 (NNQRNFLAGDEDNVISQIQRPVKE) [compound 158] | 21%
84 | 496 (GAFTPLQYKSYQD) [compound 496] | 51% and 81%
85 | 85 (SIFRALPTDVLANAYRISREE) [compound 85] | 35%
86 | 465 (TVFNGVLRPGQLL) [compound 465] | 96%
87 | 121 (PNVNPWHNPRQGGF) [compound 121] | 48%
88 | 505 (FLLAGNKRNPQAYR) [compound 505] | 118%

Reference: patent US20180291070A1, “PEPTIDES, AND USES THEREOF” (priority 2015, published 2018)
